What follows are molecules tested on Sarcoma 180 ascites (assay: S180a screening (Sarcoma 180 ascites tumor model), increase in life span). Conditions: dose 5.00 mg/kg on day 1, vehicle water, pH7.
Assay type: in vivo, CFW mice
Procedure: CFW mice, averaging 20 g, are innoculated on day zero with 0.2 mL of a freshly prepared saline suspension (0.15 M NaCI) containing 1 × 10^7 tumor cells/mL, or a total of 2 x 10^6 cells. On day I, the mice are injected with the test compound in the selected medium (usually water). Six mice are used per test dose, with six doses normally being run.
Also, on day one, two types of controls (6 mice/set are employed: (1) Normal (1 set): 0.5 mL of the solvent medium used for the test compound, and (2) Positive control (1 set): cis-[Pt(NH3)2Cl2] in saline at 8 mg/kg.
The effectiveness of a compound is measured in terms of the increase in life span (ILS) of the test animals relative to the controls calculated from the day of tumor inoculation (day zero). The day of evaluation is arbitrarily taken as that day corresponding to twice the mean life-span of the normal controls. This sets a practical upper limit of 100% on the ILS attainable. For calculation purposes, survivors on the day of evaluation are considered to have died on that day. The % ILS is formulated as: [formula]
ILS values above 50% represent activity. The positive controls must have an ILS of ≧ 50% for the test to be valid.

Compound	%ILS
NCCN.O=C1[O][Pt][O]P1(=O)O [Ex 13, H[Pt(en)(phosphonoformate)]]	9%

Same assay, conditions: dose 5.00 mg/kg on day 1, vehicle water, pH7; survivors on day of evaluation

Compound	Surv.
NCCN.O=C1[O][Pt][O]P1(=O)O [Ex 13, H[Pt(en)(phosphonoformate)]]	0/ 6

Same assay, conditions: dose 10.00 mg/kg on day 1, vehicle water

Compound	%ILS
CC1C(=O)[O][Pt][O]P1(=O)[O-].N.N.[Na+] (racemic) [Ex 15, Na[cis-Pt(NH3)2(2-phosphonopropionate)]]	16%

Same assay, conditions: dose 10.00 mg/kg on day 1, vehicle water, pH7

Compound	%ILS
NCCN.O=C1[O][Pt][O]P1(=O)O [Ex 13, H[Pt(en)(phosphonoformate)]]	31%

Same assay, conditions: dose 10.00 mg/kg on day 1, vehicle water, pH7; survivors on day of evaluation

Compound	Surv.
NCCN.O=C1[O][Pt][O]P1(=O)O [Ex 13, H[Pt(en)(phosphonoformate)]]	1/ 6

Same assay, conditions: dose 10.00 mg/kg on day 1, vehicle water; survivors on day of evaluation

Compound	Surv.
CC1C(=O)[O][Pt][O]P1(=O)[O-].N.N.[Na+] (racemic) [Ex 15, Na[cis-Pt(NH3)2(2-phosphonopropionate)]]	1/ 6

Same assay, conditions: dose 20.00 mg/kg on day 1, vehicle water

Compound	%ILS
CC1C(=O)[O][Pt][O]P1(=O)[O-].N.N.[Na+] (racemic) [Ex 15, Na[cis-Pt(NH3)2(2-phosphonopropionate)]]	1%
N.N.O=C1[O][Pt][O]P(=O)([O-])C1c1ccccc1.[Na+] (racemic) [Ex 7, Na[cis-Pt(NHs)2(2-phosphonophenylacetate)]]	14%
CCCC1C(=O)[O][Pt][O]P1(=O)[O-].N.N.[Na+] (racemic) [Ex 19, Na[cis-Pt(NH3)2(2-phosphonovalerate)]]	-74%
CC(N)CN.CC1C(=O)[O][Pt][O]P1(=O)[O-].[Na+] (mixture of isomers) [Ex 12, Na[Pt(pn)(2-phosphonopropionate)]]	20%
CC(C)N.CC(C)N.O=C1CP(=O)([O-])[O][Pt][O]1.[Na+] [Ex 9, Na[cis-Pt(i-PrNH2)2(phosphonoacetate)]]	1%

Same assay, conditions: dose 20.00 mg/kg on day 1, vehicle water, pH7

Compound	%ILS
NCCN.O=C1[O][Pt][O]P1(=O)O [Ex 13, H[Pt(en)(phosphonoformate)]]	63%

Same assay, conditions: dose 20.00 mg/kg on day 1, vehicle water, pH7; survivors on day of evaluation

Compound	Surv.
NCCN.O=C1[O][Pt][O]P1(=O)O [Ex 13, H[Pt(en)(phosphonoformate)]]	1/ 6

Same assay, conditions: dose 20.00 mg/kg on day 1, vehicle water; survivors on day of evaluation

Compound	Surv.
CC1C(=O)[O][Pt][O]P1(=O)[O-].N.N.[Na+] (racemic) [Ex 15, Na[cis-Pt(NH3)2(2-phosphonopropionate)]]	0/ 6
N.N.O=C1[O][Pt][O]P(=O)([O-])C1c1ccccc1.[Na+] (racemic) [Ex 7, Na[cis-Pt(NHs)2(2-phosphonophenylacetate)]]	0/ 6
CCCC1C(=O)[O][Pt][O]P1(=O)[O-].N.N.[Na+] (racemic) [Ex 19, Na[cis-Pt(NH3)2(2-phosphonovalerate)]]	0/ 6
CC(N)CN.CC1C(=O)[O][Pt][O]P1(=O)[O-].[Na+] (mixture of isomers) [Ex 12, Na[Pt(pn)(2-phosphonopropionate)]]	0/ 6
CC(C)N.CC(C)N.O=C1CP(=O)([O-])[O][Pt][O]1.[Na+] [Ex 9, Na[cis-Pt(i-PrNH2)2(phosphonoacetate)]]	0/ 6

Same assay, conditions: dose 40.00 mg/kg on day 1, vehicle water

Compound	%ILS
CC1C(=O)[O][Pt][O]P1(=O)[O-].N.N.[Na+] (racemic) [Ex 15, Na[cis-Pt(NH3)2(2-phosphonopropionate)]]	-7%
N.N.O=C1[O][Pt][O]P(=O)([O-])C1c1ccccc1.[Na+] (racemic) [Ex 7, Na[cis-Pt(NHs)2(2-phosphonophenylacetate)]]	26%
CCCC1C(=O)[O][Pt][O]P1(=O)[O-].N.N.[Na+] (racemic) [Ex 19, Na[cis-Pt(NH3)2(2-phosphonovalerate)]]	-85%
CC(N)CN.CC1C(=O)[O][Pt][O]P1(=O)[O-].[Na+] (mixture of isomers) [Ex 12, Na[Pt(pn)(2-phosphonopropionate)]]	24%
CC(C)N.CC(C)N.O=C1CP(=O)([O-])[O][Pt][O]1.[Na+] [Ex 9, Na[cis-Pt(i-PrNH2)2(phosphonoacetate)]]	-2%

Same assay, conditions: dose 40.00 mg/kg on day 1, vehicle water, pH7

Compound	%ILS
NCCN.O=C1[O][Pt][O]P1(=O)O [Ex 13, H[Pt(en)(phosphonoformate)]]	93%

Same assay, conditions: dose 40.00 mg/kg on day 1, vehicle water, pH7; survivors on day of evaluation

Compound	Surv.
NCCN.O=C1[O][Pt][O]P1(=O)O [Ex 13, H[Pt(en)(phosphonoformate)]]	5/ 6

Same assay, conditions: dose 40.00 mg/kg on day 1, vehicle water; survivors on day of evaluation

Compound	Surv.
CC1C(=O)[O][Pt][O]P1(=O)[O-].N.N.[Na+] (racemic) [Ex 15, Na[cis-Pt(NH3)2(2-phosphonopropionate)]]	0/ 6
N.N.O=C1[O][Pt][O]P(=O)([O-])C1c1ccccc1.[Na+] (racemic) [Ex 7, Na[cis-Pt(NHs)2(2-phosphonophenylacetate)]]	0/ 6
CCCC1C(=O)[O][Pt][O]P1(=O)[O-].N.N.[Na+] (racemic) [Ex 19, Na[cis-Pt(NH3)2(2-phosphonovalerate)]]	0/ 6
CC(N)CN.CC1C(=O)[O][Pt][O]P1(=O)[O-].[Na+] (mixture of isomers) [Ex 12, Na[Pt(pn)(2-phosphonopropionate)]]	0/ 6
CC(C)N.CC(C)N.O=C1CP(=O)([O-])[O][Pt][O]1.[Na+] [Ex 9, Na[cis-Pt(i-PrNH2)2(phosphonoacetate)]]	0/ 6

Same assay, conditions: dose 80.00 mg/kg on day 1, vehicle water

Compound	%ILS
CC1C(=O)[O][Pt][O]P1(=O)[O-].N.N.[Na+] (racemic) [Ex 15, Na[cis-Pt(NH3)2(2-phosphonopropionate)]]	-80%
N.N.O=C1[O][Pt][O]P(=O)([O-])C1c1ccccc1.[Na+] (racemic) [Ex 7, Na[cis-Pt(NHs)2(2-phosphonophenylacetate)]]	71%
CCCC1C(=O)[O][Pt][O]P1(=O)[O-].N.N.[Na+] (racemic) [Ex 19, Na[cis-Pt(NH3)2(2-phosphonovalerate)]]	-95%
CC(N)CN.CC1C(=O)[O][Pt][O]P1(=O)[O-].[Na+] (mixture of isomers) [Ex 12, Na[Pt(pn)(2-phosphonopropionate)]]	40%
CC(C)N.CC(C)N.O=C1CP(=O)([O-])[O][Pt][O]1.[Na+] [Ex 9, Na[cis-Pt(i-PrNH2)2(phosphonoacetate)]]	-4%

Same assay, conditions: dose 80.00 mg/kg on day 1, vehicle water, pH7

Compound	%ILS
NCCN.O=C1[O][Pt][O]P1(=O)O [Ex 13, H[Pt(en)(phosphonoformate)]]	58%

Same assay, conditions: dose 80.00 mg/kg on day 1, vehicle water, pH7; survivors on day of evaluation

Compound	Surv.
NCCN.O=C1[O][Pt][O]P1(=O)O [Ex 13, H[Pt(en)(phosphonoformate)]]	2/ 6

Same assay, conditions: dose 80.00 mg/kg on day 1, vehicle water; survivors on day of evaluation

Compound	Surv.
CC1C(=O)[O][Pt][O]P1(=O)[O-].N.N.[Na+] (racemic) [Ex 15, Na[cis-Pt(NH3)2(2-phosphonopropionate)]]	0/ 6
N.N.O=C1[O][Pt][O]P(=O)([O-])C1c1ccccc1.[Na+] (racemic) [Ex 7, Na[cis-Pt(NHs)2(2-phosphonophenylacetate)]]	2/ 6
CCCC1C(=O)[O][Pt][O]P1(=O)[O-].N.N.[Na+] (racemic) [Ex 19, Na[cis-Pt(NH3)2(2-phosphonovalerate)]]	0/ 6
CC(N)CN.CC1C(=O)[O][Pt][O]P1(=O)[O-].[Na+] (mixture of isomers) [Ex 12, Na[Pt(pn)(2-phosphonopropionate)]]	0/ 6
CC(C)N.CC(C)N.O=C1CP(=O)([O-])[O][Pt][O]1.[Na+] [Ex 9, Na[cis-Pt(i-PrNH2)2(phosphonoacetate)]]	0/ 6

Same assay, conditions: dose 160.00 mg/kg on day 1, vehicle water

Compound	%ILS
CC1C(=O)[O][Pt][O]P1(=O)[O-].N.N.[Na+] (racemic) [Ex 15, Na[cis-Pt(NH3)2(2-phosphonopropionate)]]	-80%
N.N.O=C1[O][Pt][O]P(=O)([O-])C1c1ccccc1.[Na+] (racemic) [Ex 7, Na[cis-Pt(NHs)2(2-phosphonophenylacetate)]]	28%
CCCC1C(=O)[O][Pt][O]P1(=O)[O-].N.N.[Na+] (racemic) [Ex 19, Na[cis-Pt(NH3)2(2-phosphonovalerate)]]	-95%
CC(N)CN.CC1C(=O)[O][Pt][O]P1(=O)[O-].[Na+] (mixture of isomers) [Ex 12, Na[Pt(pn)(2-phosphonopropionate)]]	53%
CC(C)N.CC(C)N.O=C1CP(=O)([O-])[O][Pt][O]1.[Na+] [Ex 9, Na[cis-Pt(i-PrNH2)2(phosphonoacetate)]]	15%

Same assay, conditions: dose 160.00 mg/kg on day 1, vehicle water, pH7

Compound	%ILS
NCCN.O=C1[O][Pt][O]P1(=O)O [Ex 13, H[Pt(en)(phosphonoformate)]]	-74%

Same assay, conditions: dose 160.00 mg/kg on day 1, vehicle water, pH7; survivors on day of evaluation

Compound	Surv.
NCCN.O=C1[O][Pt][O]P1(=O)O [Ex 13, H[Pt(en)(phosphonoformate)]]	0/ 6

Same assay, conditions: dose 160.00 mg/kg on day 1, vehicle water; survivors on day of evaluation

Compound	Surv.
CC1C(=O)[O][Pt][O]P1(=O)[O-].N.N.[Na+] (racemic) [Ex 15, Na[cis-Pt(NH3)2(2-phosphonopropionate)]]	0/ 6
N.N.O=C1[O][Pt][O]P(=O)([O-])C1c1ccccc1.[Na+] (racemic) [Ex 7, Na[cis-Pt(NHs)2(2-phosphonophenylacetate)]]	0/ 6
CCCC1C(=O)[O][Pt][O]P1(=O)[O-].N.N.[Na+] (racemic) [Ex 19, Na[cis-Pt(NH3)2(2-phosphonovalerate)]]	0/ 6
CC(N)CN.CC1C(=O)[O][Pt][O]P1(=O)[O-].[Na+] (mixture of isomers) [Ex 12, Na[Pt(pn)(2-phosphonopropionate)]]	1/ 6
CC(C)N.CC(C)N.O=C1CP(=O)([O-])[O][Pt][O]1.[Na+] [Ex 9, Na[cis-Pt(i-PrNH2)2(phosphonoacetate)]]	0/ 6

Same assay, conditions: dose 320.00 mg/kg on day 1, vehicle water

Compound	%ILS
CC(C)N.CC(C)N.O=C1CP(=O)([O-])[O][Pt][O]1.[Na+] [Ex 9, Na[cis-Pt(i-PrNH2)2(phosphonoacetate)]]	17%

Same assay, conditions: dose 320.00 mg/kg on day 1, vehicle water; survivors on day of evaluation

Compound	Surv.
CC(C)N.CC(C)N.O=C1CP(=O)([O-])[O][Pt][O]1.[Na+] [Ex 9, Na[cis-Pt(i-PrNH2)2(phosphonoacetate)]]	0/ 6
